Here are results for three molecules from patent publication US9676818B2, “Toll-like receptor 2-agonistic lipopeptides, and method of making the same” (University of Kansas, priority 2013, dated 2017).

The nature of data set [1]: Stability of aqueous stocks. It counts as physicochemical.
Another data set concerns the target human TLR2 (Homo sapiens (Human), UniProt O60603). The experiment in a line: human TLR2-specific NF-κB reporter gene assay (HEK-Blue cells). It counts as cell-based. As to conditions: for EC50: human TLR2-specific reporter gene assay, ND = no activity detected at 10 μM, read-out: TLR2-Agonistic Activity (EC50 in nM). From the text: The induction of NF-κB in a TLR2-specific reporter gene assay was quantified using HEK-BLUE™ cells as previously described (Wu, W. et al., J. Med. Chem. 2010, 53, 3198-3213). HEK293 cells stably transfected with either human TLR2 or murine TLR2 and alkaline phosphatase (sAP) were obtained from InvivoGen (San Diego, Calif.), and were maintained in HEK-BLUE™ Selection medium containing zeocin and normocin. Stable expression of secreted alkaline phosphatase (sAP) under control of NF-κB promoters is inducible by TLR2 agonists, and extracellular sAP in the supernatant is proportional to NF-κB induction. HEK-Blue cells were incubated at a density of ˜10^5 cells/mL in a volume of 80 μL/well, in 384-well, flat-bottomed, cell culture-treated microtiter plates until confluency was achieved, and then stimulated with serially-diluted aliquots of compounds for 12 h. sAP was assayed spectrophoto-metrically using an alkaline phosphatase-specific chromogen (present in the HEK-detection medium as supplied by the vendor) at 620 nm. For antagonism assays, HEK-Blue cells were incubated at a density of ˜10^5 cells/mL in a volume of 80 μL/well and stimulated with either PAM2CS (1 μg/mL) or lipoteichoic acid (1 μg/mL) in the presence of graded concentrations of the test compounds as described for TLR7 previously (Shukla, N. M.; et al., Bioorg. Med. Chem. Lett. 2009, 19, 2211-2214; Shukla, N. M. et al., Bioorg. Med. Chem. 2011, 19, 3801-3811).
For orientation: Reporter assays use an easily measured gene product as a stand-in for the process of interest.

The subject of data set [2] is anti-bovine α-lactalbumin IgG responses. In words: Rabbit immunization with bovine α-lactalbumin, antigen-specific IgG ELISA. It counts as in vivo. On the procedure:
All experiments were performed in accordance with institutional guidelines (University of Kansas IACUC permit #119-06) which specifically approved this study. All antigen/adjuvant preparations were entirely aqueous; no liposomal or emulsifying agents were used. Cohorts of adult female New Zealand White rabbits (n=4) were immunized intramuscularly in the flank region with (a) 100 μg of bovine α-lactalbumin in 0.2 mL saline, or (b) 100 μg of bovine α-lactalbumin plus 100 μg of compound 25 in 0.2 mL saline, or (d) 100 μg of bovine α-lactalbumin plus 100 μg of dual TLR2-agonistic PAM2CSK4 (control). Pre-immune test-bleeds were first obtained via venipuncture of the marginal vein of the ear. […] A final test-bleed was performed via the marginal vein of the ear on Day 38. Sera were stored at −80° C. until used.
Bovine α-lactalbumin-specific ELISAs were performed in 384-well format using automated liquid handling methods as described (Shukla, N. M. et al. Bioorg. Med. Chem. Lett. 2011, 21, 3232-3236). Examination of the affinity of antigen-specific IgG using chaotropic ELISA (Pullen, G. R. et al. J. Immunol. Methods 1986, 86, 83-87 and Macdonald, R. A. et al. J. Immunol. Methods 1988, 106, 191-194). […] Plates were then read at 450 nm using a SpectraMax M4 device (Molecular Devices, Sunnyvale, Calif.).

A further data set is described as follows: Aqueous solubility. The format is physicochemical.
Another data set addresses TLR7 (Homo sapiens (Human), UniProt Q9NYK1). The experiment in a line: primary human TLR-specific reporter gene assay, TLR7 cell line. The format is cell-based. The note with it: relative to parent compounds.

Sequence of human TLR2 (O60603 21-784): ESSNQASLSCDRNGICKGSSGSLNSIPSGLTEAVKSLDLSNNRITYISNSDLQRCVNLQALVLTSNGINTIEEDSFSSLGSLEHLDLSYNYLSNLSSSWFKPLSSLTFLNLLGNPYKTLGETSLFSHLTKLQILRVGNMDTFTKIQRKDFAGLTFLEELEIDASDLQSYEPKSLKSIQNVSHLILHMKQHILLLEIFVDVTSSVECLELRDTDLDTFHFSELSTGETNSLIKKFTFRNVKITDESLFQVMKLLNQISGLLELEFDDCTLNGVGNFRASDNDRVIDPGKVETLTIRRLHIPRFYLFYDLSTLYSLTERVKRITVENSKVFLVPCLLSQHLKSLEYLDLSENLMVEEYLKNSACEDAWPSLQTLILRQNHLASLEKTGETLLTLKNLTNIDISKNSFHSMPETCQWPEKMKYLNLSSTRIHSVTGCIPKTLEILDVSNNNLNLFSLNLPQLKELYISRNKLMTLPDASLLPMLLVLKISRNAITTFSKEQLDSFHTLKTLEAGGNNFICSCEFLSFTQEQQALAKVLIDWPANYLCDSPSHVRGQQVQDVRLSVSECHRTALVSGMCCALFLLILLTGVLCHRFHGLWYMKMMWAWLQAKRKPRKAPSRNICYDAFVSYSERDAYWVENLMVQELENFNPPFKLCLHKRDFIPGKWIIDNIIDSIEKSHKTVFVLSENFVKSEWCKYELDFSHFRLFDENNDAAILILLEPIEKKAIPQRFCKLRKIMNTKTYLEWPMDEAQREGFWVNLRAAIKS
Sequence of TLR7 (Q9NYK1 27-1049): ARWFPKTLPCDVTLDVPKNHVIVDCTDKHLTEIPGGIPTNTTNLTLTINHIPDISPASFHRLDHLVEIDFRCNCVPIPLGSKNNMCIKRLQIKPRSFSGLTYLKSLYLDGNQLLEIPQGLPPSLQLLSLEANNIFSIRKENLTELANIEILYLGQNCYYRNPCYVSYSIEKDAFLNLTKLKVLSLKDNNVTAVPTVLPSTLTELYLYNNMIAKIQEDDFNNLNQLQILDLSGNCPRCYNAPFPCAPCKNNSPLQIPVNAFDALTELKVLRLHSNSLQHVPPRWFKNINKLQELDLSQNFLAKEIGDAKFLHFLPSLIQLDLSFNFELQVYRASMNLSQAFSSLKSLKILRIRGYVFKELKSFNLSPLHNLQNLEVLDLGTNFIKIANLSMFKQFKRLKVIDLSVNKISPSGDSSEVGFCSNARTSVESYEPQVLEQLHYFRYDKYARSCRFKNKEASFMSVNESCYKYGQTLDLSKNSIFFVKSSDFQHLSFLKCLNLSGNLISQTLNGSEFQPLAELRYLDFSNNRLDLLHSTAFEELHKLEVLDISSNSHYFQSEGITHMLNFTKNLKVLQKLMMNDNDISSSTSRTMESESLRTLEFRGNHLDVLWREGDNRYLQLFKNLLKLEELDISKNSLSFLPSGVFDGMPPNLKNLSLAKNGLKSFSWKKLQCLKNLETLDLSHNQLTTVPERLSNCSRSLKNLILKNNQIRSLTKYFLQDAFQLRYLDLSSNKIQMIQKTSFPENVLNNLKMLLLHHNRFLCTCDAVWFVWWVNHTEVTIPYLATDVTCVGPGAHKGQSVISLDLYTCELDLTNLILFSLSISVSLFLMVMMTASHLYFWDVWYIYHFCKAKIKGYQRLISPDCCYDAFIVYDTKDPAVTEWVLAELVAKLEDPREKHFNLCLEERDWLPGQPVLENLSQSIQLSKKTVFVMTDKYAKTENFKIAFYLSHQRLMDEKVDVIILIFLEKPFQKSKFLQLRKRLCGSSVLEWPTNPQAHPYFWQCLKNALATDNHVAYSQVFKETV

As a reminder, the EC50 is the concentration that produces a half-maximal response. Regarding `CCCCCCCCCCCCCCCC(=O)OCCSC[C@H](NC(C)=O)C(=O)N[C@@H](COC(=O)[C@@H](N)CCCCN)C(=O)OC.Cl.Cl` [Compound 25, 2-(((R)-2-Acetamido-3-(((S)-3-(((S)-2,6-diaminohexanoyl)oxy)-1-methoxy-1-oxopropan-2-yl)amino)-3-oxopropyl)thio)ethyl palmitate], the “stability of aqueous stocks” value in data set [1] is recorded as “unstable”. In addition, on human TLR2, the EC50 came out at 6.81 nM. In addition, in data set [2] (rabbits, prime+single-boost model, FIG. 2), the “induction of anti-bovine α-lactalbumin IgG responses” value was “excellent induction”. For the same molecule, the water solubility entry in the data set “Aqueous solubility” is given as “exceptionally water soluble”.
Consider `CCCCCCCCCCCCCCCCOC(=O)NCCSC[C@H](NC(C)=O)C(=O)N[C@@H](CO)C(=O)NCc1ccc(Cn2c(CCCC)nc3c(N)nc4ccccc4c32)cc1` [Compound 54, Hexadecyl(2-(((R)-2-acetamido-3-(((S)-1-((4-((4-amino-2-butyl-1H-imidazo[4,5-c]quinolin-1-yl)methyl)benzyl)amino)-3-hydroxy-1-oxopropan-2-yl)amino)-3-oxopropyl)thio)ethyl)carbamate], for which the “hTLR2-agonistic activity in words” value on human TLR2 (hTLR2 reporter gene assay) is reported as “less active than their parent compounds”. Moreover, the concentration for a half-maximal effect (EC50) on human TLR2 came to 221 nM. The “activity in TLR7 cell line” value on TLR7 is listed as “less active than their parent compounds”.
In the case of PAM2CSK4 [reference compound], the adjuvanticity result in data set [2] (New Zealand White rabbits, direct comparison with glucopyranosyl lipid A) was “highly adjuvantic”.
